Square brackets hold non-standard residues; d marks the D form. Peptide text beside a SMILES is read from it. * marks the point of attachment. ξ: configuration not given here. ξF = NC(Cc1ccccc1)C(=O)O; Boc = CC(C)(C)OC(=O)*; CF3 = FC(F)(F)* Bounds are passed on as bounds.

The Ki is the equilibrium dissociation constant of an inhibitor or competing ligand from its target. Read a high Ki as weaker binding.

One assay concerns the target T1, Cathepsin G (Homo sapiens, UniProt P08311).
T1 sequence (P08311 whole entry): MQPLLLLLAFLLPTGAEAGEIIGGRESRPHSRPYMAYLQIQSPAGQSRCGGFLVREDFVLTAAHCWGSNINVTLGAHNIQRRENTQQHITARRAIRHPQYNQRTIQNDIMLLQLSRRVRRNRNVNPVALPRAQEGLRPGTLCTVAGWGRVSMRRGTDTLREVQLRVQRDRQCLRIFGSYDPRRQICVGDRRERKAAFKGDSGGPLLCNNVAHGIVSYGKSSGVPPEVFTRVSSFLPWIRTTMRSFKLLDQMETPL
Briefly: The compound was tested for its potency to inhibit human Cathepsin G.

In the next assay the target is T2, Neutrophil elastase (Homo sapiens, UniProt P08246).
T2 sequence (P08246 whole entry): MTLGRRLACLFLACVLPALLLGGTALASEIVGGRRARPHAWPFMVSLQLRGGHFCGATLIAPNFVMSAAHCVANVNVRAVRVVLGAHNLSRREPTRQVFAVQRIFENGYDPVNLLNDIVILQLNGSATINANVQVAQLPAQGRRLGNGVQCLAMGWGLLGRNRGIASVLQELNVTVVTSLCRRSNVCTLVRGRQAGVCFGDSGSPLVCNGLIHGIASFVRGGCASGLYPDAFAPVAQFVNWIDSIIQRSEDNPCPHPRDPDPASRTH
Briefly: The compound was tested for its potency to inhibit human neutrophil elastase activity.

A further assay has as its target Chymotrypsinogen A (Bos taurus, UniProt P00766). Kind of assay: The compound was tested for its potency to inhibit alpha-Chymotrypsin.

Take `CC(C)C(NC(=O)[C@@H]1CCCN1C(=O)[C@@H](NC(=O)c1ccc(C(=O)NC(Cc2ccccc2)C(=O)C(F)(F)F)cc1)C(C)C)C(=O)C(F)(F)C(F)(F)F` (some centres not stated): the Ki is more than 1000 µM at Cathepsin G, 0.004 µM at Neutrophil elastase and 1.2 µM on Chymotrypsinogen A.
Turning to `CC(C)C(NC(=O)[C@@H]1CCCN1C(=O)[C@@H](NC(=O)OC(C)(C)C)C(C)C)C(=O)C(F)(F)C(F)(F)F` (some centres not stated), the Ki on Neutrophil elastase is 0.055 µM.
As for `CC(C)C(NC(=O)[C@@H]1CCCN1C(=O)[C@@H](NC(=O)c1ccc(C(=O)N[C@@H](C(=O)N2CCC[C@@H]2C(=O)NC(Cc2ccccc2)C(=O)C(F)(F)F)C(C)C)cc1)C(C)C)C(=O)C(F)(F)C(F)(F)F` (some centres not stated), the Ki on Cathepsin G was found to be 2.2 µM; at Neutrophil elastase, 0.0159 µM.
`CC(C)[C@H](NC(=O)OC(C)(C)C)C(=O)N1CCC[C@H]1C(=O)NC(Cc1ccccc1)C(=O)C(F)(F)F` (stereo partly drawn) (Boc-Val-Pro-[ξF]-CF3): affinity at Cathepsin G was put at a Ki of 1.7 µM.
